Source: ChEMBL document CHEMBL1201862, “PubChem BioAssay data set” (2004)
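Following 48 hours of exposure in 96-well plates, responses at five concentrations were used to interpolate endpoints linearly. Abbreviation: GI50, concentration required for 50% inhibition of growth.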 Active and inactive are the calls of the source. Cut-off read from the data, not from the text of the source: active = GI50 up to about 1.1 µM and inactive = higher.

Columns and labels:
Experiment in all cases: NCI-60 cell line screen, 48 h
[1] = system: LOX IMVI
[2] = system: HOP-92
[3] = system: RXF 393
[4] = system: EKVX
[5] = system: NCI-H522
[6] = system: NCI-H23
[7] = system: RPMI-8226
[8] = system: NCI-H226
[9] = system: SR
[10] = system: Hs-578T
[11] = system: HCC 2998
[12] = system: M14
[13] = system: HOP-62
[14] = system: SK-MEL-28
[15] = system: DU-145
[16] = system: MDA-MB-435
[17] = system: MOLT-4
[18] = system: TK-10
[19] = system: K562

Row | SMILES | GI50 [1] | GI50 [2] | GI50 [3] | GI50 [4] | GI50 [5] | GI50 [6] | GI50 [7] | GI50 [8] | GI50 [9] | GI50 [10] | GI50 [11] | GI50 [12] | GI50 [13] | GI50 [14] | GI50 [15] | GI50 [16] | GI50 [17] | GI50 [18] | GI50 [19]
1 | Cc1occc1/C(S)=N\c1ccc(Cl)c(COC(C)(C)C)c1 | 17.3 µM (inactive) | 15.7 µM (inactive) | 14.9 µM (inactive) | 16.3 µM (inactive) | 14.5 µM (inactive) | 16.4 µM (inactive) | 14.2 µM (inactive) | 18.1 µM (inactive) | 17.6 µM (inactive) | 20.2 µM (inactive) | 18.2 µM (inactive) | 19.1 µM (inactive) | 18.3 µM (inactive) | 16.5 µM (inactive) | 20.1 µM (inactive) | 16.7 µM (inactive) | 14.4 µM (inactive) | 19.4 µM (inactive) | –
2 | COc1cccc(-c2cc(=O)c3cc(N4CCCCC4)ccc3[nH]2)c1 | < 0.0177 µM (active) | 13.1 µM (inactive) | < 0.01 µM (active) | – | < 0.0177 µM (active) | 0.0204 µM (active) | < 0.01 µM (active) | 0.0127 µM (active) | < 0.01 µM (active) | < 0.014 µM (active) | 0.0434 µM (active) | < 0.0132 µM (active) | < 0.0145 µM (active) | > 100 µM (inactive) | 0.0622 µM (active) | < 0.01 µM (active) | 0.024 µM (active) | 79.3 µM (inactive) | < 0.01 µM (active)
3 | O=C(Nc1ccc2c(c1)oc(=O)c1ccccc12)C(Cl)Cl | > 100 µM (inactive) | > 100 µM (inactive) | > 100 µM (inactive) | 85.5 µM (inactive) | > 100 µM (inactive) | > 100 µM (inactive) | 14.3 µM (inactive) | > 100 µM (inactive) | 45 µM (inactive) | > 100 µM (inactive) | 63.5 µM (inactive) | > 100 µM (inactive) | 62.1 µM (inactive) | > 100 µM (inactive) | > 100 µM (inactive) | > 100 µM (inactive) | 54.7 µM (inactive) | – | 51.2 µM (inactive)
4 | OC1CN2CCS[C@H]2C(O)C1O (some centres undefined) | > 100 µM (inactive) | > 100 µM (inactive) | > 100 µM (inactive) | > 100 µM (inactive) | > 100 µM (inactive) | > 100 µM (inactive) | > 100 µM (inactive) | > 100 µM (inactive) | > 100 µM (inactive) | > 100 µM (inactive) | > 100 µM (inactive) | > 100 µM (inactive) | > 100 µM (inactive) | > 100 µM (inactive) | > 100 µM (inactive) | > 100 µM (inactive) | > 100 µM (inactive) | > 100 µM (inactive) | > 100 µM (inactive)
5 | O=[N+]([O-])C(/C=C(\Cl)[N+](=O)[O-])=C(N1CCOCC1)N1CCOCC1 | 85.9 µM (inactive) | 25.4 µM (inactive) | 31.5 µM (inactive) | > 100 µM (inactive) | 41.8 µM (inactive) | > 100 µM (inactive) | 26.5 µM (inactive) | > 100 µM (inactive) | 39.6 µM (inactive) | 0.232 µM (active) | 24 µM (inactive) | > 100 µM (inactive) | 20.9 µM (inactive) | > 100 µM (inactive) | > 100 µM (inactive) | > 100 µM (inactive) | 50.2 µM (inactive) | 47 µM (inactive) | 18.3 µM (inactive)
6 | CCC1CCN/C(=N/S(=O)(=O)c2cc(C)c(Cl)cc2S)N1 (centres undefined) | 24.1 µM (inactive) | 50.9 µM (inactive) | 76.2 µM (inactive) | 32.5 µM (inactive) | 27.7 µM (inactive) | – | 24.2 µM (inactive) | 26.7 µM (inactive) | 35.4 µM (inactive) | 28.4 µM (inactive) | 43.2 µM (inactive) | 35.7 µM (inactive) | 24.3 µM (inactive) | 52.7 µM (inactive) | 43.7 µM (inactive) | 22.9 µM (inactive) | 21.7 µM (inactive) | 37.7 µM (inactive) | 32.4 µM (inactive)
7 | Clc1ccc(C2ON=C(c3ccccc3)N2C23CC4CC(CC(C4)C2)C3)cc1 (centres undefined) | > 10 µM (inactive) | > 10 µM (inactive) | > 10 µM (inactive) | > 10 µM (inactive) | > 10 µM (inactive) | > 10 µM (inactive) | > 10 µM (inactive) | > 10 µM (inactive) | > 10 µM (inactive) | > 10 µM (inactive) | > 10 µM (inactive) | > 10 µM (inactive) | > 10 µM (inactive) | > 10 µM (inactive) | > 10 µM (inactive) | > 10 µM (inactive) | 9.66 µM (inactive) | > 10 µM (inactive) | > 10 µM (inactive)
8 | CCOC(=O)c1sc2nc(SC)nc3c2c1NC(=O)CN3c1ccc(F)cc1 | 38.3 µM (inactive) | 31.8 µM (inactive) | 18.8 µM (inactive) | 47.4 µM (inactive) | 71.9 µM (inactive) | 50.6 µM (inactive) | 65.9 µM (inactive) | 41.7 µM (inactive) | > 100 µM (inactive) | 27.1 µM (inactive) | 34.6 µM (inactive) | 37.9 µM (inactive) | 15.7 µM (inactive) | 8.18 µM (inactive) | 40.4 µM (inactive) | 32.3 µM (inactive) | > 100 µM (inactive) | 30.7 µM (inactive) | 77.6 µM (inactive)
9 | COc1nn(Cc2ccccn2)c2ccc([N+](=O)[O-])cc12 | 53.6 µM (inactive) | 20.7 µM (inactive) | 42.4 µM (inactive) | 56.1 µM (inactive) | 47.8 µM (inactive) | > 100 µM (inactive) | 54.8 µM (inactive) | 85.9 µM (inactive) | 28.4 µM (inactive) | 19.4 µM (inactive) | 84.7 µM (inactive) | > 100 µM (inactive) | > 100 µM (inactive) | > 100 µM (inactive) | > 100 µM (inactive) | 32.7 µM (inactive) | 53.1 µM (inactive) | 53.1 µM (inactive) | 31 µM (inactive)
10 | COC(=O)CCc1cc(OC)c(O)c(C(Cc2ccc(OC)c(OC)c2)C(=O)OC)c1 (centres undefined) | > 100 µM (inactive) | > 100 µM (inactive) | > 100 µM (inactive) | > 100 µM (inactive) | > 100 µM (inactive) | > 100 µM (inactive) | > 100 µM (inactive) | > 100 µM (inactive) | > 100 µM (inactive) | > 100 µM (inactive) | > 100 µM (inactive) | > 100 µM (inactive) | > 100 µM (inactive) | > 100 µM (inactive) | > 100 µM (inactive) | > 100 µM (inactive) | > 100 µM (inactive) | > 100 µM (inactive) | > 100 µM (inactive)
11 | c1ccc(C2C3=C(c4ccccc4CC3)N3c4cc5c(cc4=NC34CCCCC24)Nc2ccccc2N=5)cc1 (centres undefined) | 8.04 µM (inactive) | 7.64 µM (inactive) | 6.59 µM (inactive) | > 10 µM (inactive) | 1 µM (active) | 9.2 µM (inactive) | 5.11 µM (inactive) | 6.58 µM (inactive) | 1.11 µM (active) | > 10 µM (inactive) | > 10 µM (inactive) | 6.61 µM (inactive) | > 10 µM (inactive) | > 10 µM (inactive) | > 10 µM (inactive) | 7.28 µM (inactive) | 2.4 µM (inactive) | > 10 µM (inactive) | 5.27 µM (inactive)
12 | Cc1sc2nc(-c3cccc([N+](=O)[O-])c3)c(/C=N/N=C(N)N)n2c1C | 1.77 µM (inactive) | 1.46 µM (inactive) | 1.66 µM (inactive) | 1.67 µM (inactive) | 1.77 µM (inactive) | 1.82 µM (inactive) | 1.96 µM (inactive) | 1.82 µM (inactive) | 1.75 µM (inactive) | 1.66 µM (inactive) | 1.32 µM (inactive) | 1.6 µM (inactive) | 1.72 µM (inactive) | 1.67 µM (inactive) | 1.86 µM (inactive) | 1.79 µM (inactive) | 1.9 µM (inactive) | 1.51 µM (inactive) | 1.69 µM (inactive)
13 | CCOC(=O)c1cc(NC(=O)c2ccccc2)c(=O)n2c(cc3c(Cl)cccc32)c1O | > 100 µM (inactive) | > 100 µM (inactive) | > 100 µM (inactive) | > 100 µM (inactive) | > 100 µM (inactive) | > 100 µM (inactive) | 80.4 µM (inactive) | > 100 µM (inactive) | > 100 µM (inactive) | > 100 µM (inactive) | > 100 µM (inactive) | > 100 µM (inactive) | > 100 µM (inactive) | > 100 µM (inactive) | > 100 µM (inactive) | > 100 µM (inactive) | > 100 µM (inactive) | > 100 µM (inactive) | > 100 µM (inactive)
14 | COc1cc2c(cc1OC)CC1c3cc(OC)c(OC)cc3CCN1CC2 (centres undefined) | – | 69.3 µM (inactive) | 83.6 µM (inactive) | > 100 µM (inactive) | > 100 µM (inactive) | 0.101 µM (active) | 41.8 µM (inactive) | 19.6 µM (inactive) | > 100 µM (inactive) | 22.9 µM (inactive) | > 100 µM (inactive) | > 100 µM (inactive) | > 100 µM (inactive) | > 100 µM (inactive) | > 100 µM (inactive) | 40.3 µM (inactive) | > 100 µM (inactive) | > 100 µM (inactive) | 89.7 µM (inactive)
15 | COc1cccc(-c2cc(O)c3cccnc3n2)c1 | 0.0867 µM (active) | 0.0776 µM (active) | 0.229 µM (active) | – | 0.0698 µM (active) | 0.204 µM (active) | 0.195 µM (active) | 0.325 µM (active) | 0.0614 µM (active) | 0.092 µM (active) | 0.251 µM (active) | 0.0575 µM (active) | 0.104 µM (active) | 0.234 µM (active) | 0.556 µM (active) | 0.0164 µM (active) | 0.221 µM (active) | > 100 µM (inactive) | 0.0339 µM (active)
